Measurements as given in US20120277238A1, “PHARMACEUTICAL COMPOSITION CONTAINING FUSED HETERO-RING DERIVATIVE” (Shionogi & Co., Ltd, priority 2009, published 2012).

Legend:
CYP3A4 [1] = biological target: T1, CYP3A4 (Homo sapiens, UniProt P08684); assay: CYP inhibition test (pooled human hepatic microsome); assay type: in vitro ADME; parameters: enzyme, pooled human hepatic microsome 0.2 mg protein/mL; from tissue; settings: terfenedine hydroxylation
Protocol: Using commercially available pooled human hepatic microsome, and employing, as markers, 7-ethoxyresorufin O-deethylation (CYP1A2), tolbutamide methylhydroxylation (CYP2C9), mephenyloin 4′-hydroxylation (CYP2C19), dextromethorphan O-demethylation (CYP2D6), and terfenedine hydroxylation as typical substrate metabolism reactions of human main five CYP enzyme forms (CYP1A2, 2C9, 2C19, 2D6, 3A4), an inhibitory degree of each metabolite production amount by a test compound was assessed. […] After the centrifugation at 3000 rpm for 15 minutes, resorufin (CYP1A2 metabolite) in the supernatant was quantified by a fluorescent multilabel counter and tributamide hydroxide (CYP2CP metabolite), mephenyloin 4′ hydroxide (CYP2C19 metabolite), […], and terfenadine alcohol (CYP3A4 metabolite) were quantified by LC/MS/MS. Addition of only DMSO being a solvent dissolving a drug to a reaction system was adopted as a control (100%), remaining activity (%) was calculated at each concentration of a test drug added as the solution and IC50 was calculated by reverse presumption by a logistic model using a concentration and an inhibition rate.

human HRH4 = biological target: T2, human HRH4 (Homo sapiens, UniProt Q9H3N8); assay: Histamine H4 receptor binding test ([3H]-Histamine radioligand binding); settings: membrane fraction of CHO-K1 expressing human HRH4; [3H]-Histamine 15 nM; Ki by Cheng-Prusoff
T2 construct: purchased PerkinElmer
T2 sequence (Q9H3N8 whole entry): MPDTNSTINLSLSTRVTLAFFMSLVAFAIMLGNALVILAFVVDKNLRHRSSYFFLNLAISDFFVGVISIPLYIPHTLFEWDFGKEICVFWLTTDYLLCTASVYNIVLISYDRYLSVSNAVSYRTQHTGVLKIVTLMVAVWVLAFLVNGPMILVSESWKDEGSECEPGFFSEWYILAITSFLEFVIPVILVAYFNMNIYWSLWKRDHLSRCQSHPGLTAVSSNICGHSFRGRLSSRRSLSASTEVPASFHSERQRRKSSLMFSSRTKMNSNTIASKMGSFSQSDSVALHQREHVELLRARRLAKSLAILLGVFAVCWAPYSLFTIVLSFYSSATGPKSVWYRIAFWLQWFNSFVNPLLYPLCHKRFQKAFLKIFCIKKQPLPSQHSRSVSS
Protocol: Membrane fraction of CHO-K1 stably expressing human HRH4 was purchased from PerkinElmer. Radioligand binding assay was performed in 96 well polypropylene assay plates in a total assay volume of 150 μL. Membrane suspension (15 μg of protein) was mixed with [3H]-Histamine (PerkinElmer) at 15 nM and compounds at various concentration in 50 mM Tris-HCl pH7.4, 5 mM EDTA buffer. Assays were incubated for 60 min at room temperature, then the reactions were terminated by rapid filtration over 96-well GF/B filter plates (PerkinElmer) presoaked in 0.5% polyethyleneimine. Unbound radioactivity was eliminated by six times of wash with 350 μL of ice-cold 50 mM Tris pH7.4 buffer. When the filter plates were dried, Microscint-MS liquid scintillation fluid (PerkinElmer) was added to each well and retained radioactivity plates were counted in a Topcount liquid scintillation counter (PerkinElmer). Specific binding was calculated by subtracting non-specific binding determined in the presence of 100 μM unlabeled histamine from total count.
The resulting data were analyzed for IC50 using the non-linear regression on XLfit.
Affinity values (Ki) were then determined by Cheng-Prusoff equation.

CYP3A4 [2] = biological target: T1, CYP3A4; assay: CYP3A4 fluorescent MBI test; assay type: in vitro ADME; parameters: host or cells: Escherichia coli; settings: prereaction 0 or 30 minutes; substrate 7-BFC; CYP3A4 expressed in Escherichia coli
Protocol: The CYP3A4 fluorescent MBI test is a test of investigating enhancement of CYP3A4 inhibition of a compound by a metabolism reaction, and the test was performed using, as CYP3A4 enzyme expressed in Escherichia coli and employing, as an index, a reaction in which 7-benzyloxytrifluoromethylchmarin (BFC) is debenzylated by the CYP3A4 enzyme to produce a metabolite, 7-hydroxytrifluoromethylchmarin (HFC) emitting fluorescent light.
The reaction conditions were as follows: substrate, 5.6 μmol/L 7-BFC; prereaction time, 0 or 30 minutes; reaction time, 15 minutes; reaction temperature, 25° C. […]
An enzyme in a K-Pi buffer (pH 7.4) and a test drug solution as a pre-reaction solution were added to a 96-well plate at the composition of the pre-reaction, a part of it was transferred to another 96-well plate so that it was 1/10 diluted by a substrate in a K-Pi buffer, NADPH as a co-factor was added to initiate a reaction as an index (without preincubation) and, after a predetermined time of a reaction, acetonitrile/0.5 mol/L Tris(trishydroxyaminomethane)=4/1 was added to stop the reaction. […] For the plate on which each index reaction had been performed, a fluorescent value of 7-HFC which is a metabolite was measured with a fluorescent plate reader. […]

[3] = Solubility test (artificial intestinal juice pH 6.8, 1% DMSO); assay type: physicochemical; settings: artificial intestinal juice pH 6.8 with 1% DMSO, fassgf or other biorelevant, kinetic from dmso stock, 25° C.
Protocol: The solubility of a compound is determined under a condition in which 1% DMSO is added. 10 mM compound solution is prepared using DMSO, and then 6 μL of the compound solution is added to 594 μL of artificial intestinal juice in pH 6.8 (to 250 mL of 0.2 mol/L potassium dihydrogen phosphate reagent solution is added 118 mL of 0.2 mol/L NaOH reagent solution and water to provide a final volume of 1000 mL). After standing at 25° C. for 16 hours, the mixed solution is filtrated with suction. The filtrate is diluted twice with methanol/water (1/1), and then a concentration in the filtration is measured with HPLC or LC/MS/MS by the absolute calibration method.

CYP2C9 = biological target: T3, CYP2C9 (Homo sapiens, UniProt P11712); assay: CYP inhibition test (pooled human hepatic microsome); assay type: in vitro ADME; settings: tolbutamide methylhydroxylation
T3 construct: enzyme, pooled human hepatic microsome 0.2 mg protein/mL; from tissue
T3 sequence (P11712 whole entry): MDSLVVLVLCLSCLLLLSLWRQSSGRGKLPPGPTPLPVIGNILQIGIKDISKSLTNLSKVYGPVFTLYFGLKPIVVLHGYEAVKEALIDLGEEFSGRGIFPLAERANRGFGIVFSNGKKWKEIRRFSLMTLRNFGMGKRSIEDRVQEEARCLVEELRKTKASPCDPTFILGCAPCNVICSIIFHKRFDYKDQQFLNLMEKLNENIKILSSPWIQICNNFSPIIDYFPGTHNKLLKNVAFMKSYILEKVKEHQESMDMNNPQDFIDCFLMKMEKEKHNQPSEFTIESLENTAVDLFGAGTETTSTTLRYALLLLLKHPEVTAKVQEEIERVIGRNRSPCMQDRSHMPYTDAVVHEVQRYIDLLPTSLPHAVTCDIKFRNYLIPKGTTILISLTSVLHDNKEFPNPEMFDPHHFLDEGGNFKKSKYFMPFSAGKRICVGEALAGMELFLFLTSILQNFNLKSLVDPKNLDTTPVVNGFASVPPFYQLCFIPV
Protocol: (§1) Using commercially available pooled human hepatic microsome, and employing, as markers, 7-ethoxyresorufin O-deethylation (CYP1A2), tolbutamide methylhydroxylation (CYP2C9), mephenyloin 4′-hydroxylation (CYP2C19), dextromethorphan O-demethylation (CYP2D6), and terfenedine hydroxylation as typical substrate metabolism reactions of human main five CYP enzyme forms (CYP1A2, 2C9, 2C19, 2D6, 3A4), an inhibitory degree of each metabolite production amount by a test compound was assessed. The reaction conditions were as follows: substrate, 0.5 μmol/L ethoxyresorufin (CYP1A2), 100 μmol/L tolbutamide (CYP2C9), 50 μmol/L S-mephenitoin (CYP2C19), 5 μmol/L dextromethorphan (CYP2D6), 1 μmol/L terfenedine (CYP3A4); reaction time, 15 minutes; reaction temperature, 37° C.; enzyme, pooled human hepatic microsome 0.2 mg protein/mL; test drug concentration, 1, 5, 10, 20 μmol/L (four points). Each five kinds of substrates, human hepatic microsome, or a test drug in 50 mM Hepes buffer as a reaction solution was added to a 96-well plate at the composition as described above, NADPH, as a cofactor was added to initiate metabolism reactions as markers and, after the incubation at 37° C. for 15 minutes, a methanol/acetonitrile=1/1 (v/v) solution was added to stop the reaction. After the centrifugation at 3000 rpm for 15 minutes, resorufin (CYP1A2 metabolite) in the supernatant was quantified by a fluorescent multilabel counter and tributamide hydroxide (CYP2CP metabolite), mephenyloin 4′ hydroxide (CYP2C19 metabolite), […] (CYP2D6 metabolite), and terfenadine alcohol (CYP3A4 metabolite) were quantified by LC/MS/MS. Addition of only DMSO being a solvent dissolving a drug to a reaction system was adopted as a control (100%), remaining activity (%) was calculated at each concentration of a test drug added as the solution and IC50 was calculated by reverse presumption by a logistic model using a concentration and an inhibition rate.

CYP1A2 = biological target: T4, CYP1A2 (Homo sapiens, UniProt P05177); assay: as above; assay type: in vitro ADME; settings: 7-ethoxyresorufin O-deethylation
T4 construct: enzyme, pooled human hepatic microsome 0.2 mg protein/mL; from tissue
T4 sequence (P05177 1-516): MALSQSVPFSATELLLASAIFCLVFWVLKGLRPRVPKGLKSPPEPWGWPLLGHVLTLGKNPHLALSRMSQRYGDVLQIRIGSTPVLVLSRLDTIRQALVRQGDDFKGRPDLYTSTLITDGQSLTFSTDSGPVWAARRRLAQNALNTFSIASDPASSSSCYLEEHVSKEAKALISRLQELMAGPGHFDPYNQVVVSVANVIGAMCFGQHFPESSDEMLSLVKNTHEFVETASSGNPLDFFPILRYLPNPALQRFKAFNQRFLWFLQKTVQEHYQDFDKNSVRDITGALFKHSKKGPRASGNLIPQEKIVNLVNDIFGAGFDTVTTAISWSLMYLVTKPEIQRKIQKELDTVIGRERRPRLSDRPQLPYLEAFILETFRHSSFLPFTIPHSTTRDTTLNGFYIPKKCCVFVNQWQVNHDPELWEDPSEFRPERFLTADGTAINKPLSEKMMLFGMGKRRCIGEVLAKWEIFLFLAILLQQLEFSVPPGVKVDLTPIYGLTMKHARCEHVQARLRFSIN
Protocol: as §1

CYP2C19 = biological target: T5, CYP2C19 (Homo sapiens, UniProt P33261); assay: as above; assay type: in vitro ADME; settings: mephenyloin 4′-hydroxylation
T5 construct: enzyme, pooled human hepatic microsome 0.2 mg protein/mL; from tissue
T5 sequence (P33261 whole entry): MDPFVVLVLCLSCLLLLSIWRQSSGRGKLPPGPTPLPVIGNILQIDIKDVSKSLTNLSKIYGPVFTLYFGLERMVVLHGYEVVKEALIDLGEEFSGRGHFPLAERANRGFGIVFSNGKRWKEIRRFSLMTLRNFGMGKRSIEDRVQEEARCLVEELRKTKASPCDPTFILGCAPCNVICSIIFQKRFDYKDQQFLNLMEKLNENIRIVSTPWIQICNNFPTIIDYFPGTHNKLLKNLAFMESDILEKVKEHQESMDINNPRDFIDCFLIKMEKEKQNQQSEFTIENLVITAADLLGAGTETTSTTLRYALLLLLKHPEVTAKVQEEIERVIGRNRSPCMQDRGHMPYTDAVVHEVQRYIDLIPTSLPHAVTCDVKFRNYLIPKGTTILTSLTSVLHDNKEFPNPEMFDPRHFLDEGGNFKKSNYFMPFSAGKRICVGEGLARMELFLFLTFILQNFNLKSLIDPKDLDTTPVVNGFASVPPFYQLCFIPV
Protocol: as §1

CYP2D6 = biological target: T6, CYP2D6 (Homo sapiens, UniProt P10635); assay: as above; assay type: in vitro ADME; settings: dextromethorphan O-demethylation
T6 construct: enzyme, pooled human hepatic microsome 0.2 mg protein/mL; from tissue
T6 sequence (P10635 whole entry): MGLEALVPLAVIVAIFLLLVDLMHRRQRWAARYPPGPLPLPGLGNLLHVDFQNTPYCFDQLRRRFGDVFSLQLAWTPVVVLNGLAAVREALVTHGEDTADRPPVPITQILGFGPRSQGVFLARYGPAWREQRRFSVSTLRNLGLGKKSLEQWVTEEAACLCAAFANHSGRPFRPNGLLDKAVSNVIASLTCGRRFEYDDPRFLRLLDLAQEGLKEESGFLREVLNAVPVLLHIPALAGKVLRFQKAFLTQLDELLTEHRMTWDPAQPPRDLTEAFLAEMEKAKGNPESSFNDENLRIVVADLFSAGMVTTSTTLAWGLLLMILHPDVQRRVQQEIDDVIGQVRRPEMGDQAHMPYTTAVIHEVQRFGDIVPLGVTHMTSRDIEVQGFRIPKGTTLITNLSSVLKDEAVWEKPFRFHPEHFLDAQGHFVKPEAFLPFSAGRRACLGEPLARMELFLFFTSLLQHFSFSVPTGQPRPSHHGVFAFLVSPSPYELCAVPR
Protocol: as §1

hERG (IKr) = biological target: T7, hERG (IKr) (Homo sapiens, UniProt Q12809); assay: hERG test (whole cell patch clamp, IKr); assay type: cell-based; settings: HEK293 cells expressing hERG channel, pH 7.4, at 1 μmol/L, read-out: % inhibition of IKr (hERG tail peak current)
T7 construct: expressed in transfected cells; host or cells: HEK293
T7 sequence (Q12809 whole entry): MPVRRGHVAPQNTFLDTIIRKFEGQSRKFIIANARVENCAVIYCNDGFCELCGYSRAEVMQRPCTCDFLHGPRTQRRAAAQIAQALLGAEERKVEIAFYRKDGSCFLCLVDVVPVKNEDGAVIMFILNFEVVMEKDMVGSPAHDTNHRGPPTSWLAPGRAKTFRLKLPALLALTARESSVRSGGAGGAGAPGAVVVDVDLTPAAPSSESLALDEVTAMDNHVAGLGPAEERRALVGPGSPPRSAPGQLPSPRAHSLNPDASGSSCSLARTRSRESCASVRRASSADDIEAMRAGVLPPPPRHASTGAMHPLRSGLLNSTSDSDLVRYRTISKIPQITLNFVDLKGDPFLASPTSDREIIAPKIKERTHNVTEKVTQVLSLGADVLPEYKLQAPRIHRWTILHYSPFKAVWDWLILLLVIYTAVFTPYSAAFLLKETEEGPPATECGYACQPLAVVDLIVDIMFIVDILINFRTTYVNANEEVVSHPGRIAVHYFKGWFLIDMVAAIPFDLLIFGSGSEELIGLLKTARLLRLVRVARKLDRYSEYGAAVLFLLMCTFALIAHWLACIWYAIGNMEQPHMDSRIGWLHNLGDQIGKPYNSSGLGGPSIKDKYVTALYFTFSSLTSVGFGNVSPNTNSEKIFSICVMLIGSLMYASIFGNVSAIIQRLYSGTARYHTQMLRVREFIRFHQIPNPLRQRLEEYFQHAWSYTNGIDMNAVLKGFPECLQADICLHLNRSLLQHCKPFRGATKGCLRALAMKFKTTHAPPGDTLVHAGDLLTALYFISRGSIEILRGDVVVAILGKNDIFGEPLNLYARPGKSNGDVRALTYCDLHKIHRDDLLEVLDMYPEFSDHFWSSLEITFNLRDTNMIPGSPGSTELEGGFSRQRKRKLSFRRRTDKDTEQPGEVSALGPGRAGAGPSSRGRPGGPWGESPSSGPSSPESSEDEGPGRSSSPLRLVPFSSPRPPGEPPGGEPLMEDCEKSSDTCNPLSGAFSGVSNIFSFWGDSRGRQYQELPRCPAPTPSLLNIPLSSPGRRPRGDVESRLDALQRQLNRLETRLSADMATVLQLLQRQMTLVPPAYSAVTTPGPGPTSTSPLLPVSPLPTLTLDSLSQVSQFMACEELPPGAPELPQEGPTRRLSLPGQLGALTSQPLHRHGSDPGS
Description: For the purpose of assessing risk of an electrocardiogram QT interval prolongation, effects on delayed rectifier K^+ current (IKr), which plays an important role in the ventricular repolarization process, was studied using HEK293 cells expressing human ether-a-go-go related gene (hERG) channel. After a cell was retained at a membrane potential of −80 mV by whole cell patch clamp method using an automated patch clamp system (PatchXpress 7000A, Axon Instruments Inc.), IKr induced by depolarization pulse stimulation at +50 mV for 2 seconds and, further, repolarization pulse stimulation at −50 mV for 2 seconds was recorded. […] From the recording IKr, an absolute value of the tail peak current was measured based on the current value at the resting membrane potential using an analysis software (DataXpress ver.1, Molecular Devices Corporation). Further, the % inhibition relative to the tail peak current before application of the test substance was calculated, and compared with the vehicle-applied group (0.1% dimethyl sulfoxide solution) to assess influence of the test substance on IKr.

[4] = Metabolism stability test (human); assay type: in vitro ADME; settings: test compound concentration 2 μmol/L, 30 minutes, 37° C.
Protocol: Using commercially available pooled human hepatic microsomes, prepared in accordance with Japanese journal of pharmacology, 33 (1), p. 41-56, February 1983, a test compound was reacted for a constant time, a remaining rate was calculated by comparing a reacted sample and an unreacted sample, thereby, a degree of metabolism in liver was assessed.
A reaction was performed (oxidative reaction) at 37° C. for 0 minute or 30 minutes in the presence of 1 mmol/L NADPH in 0.2 mL of a buffer (50 mmol/L tris-HCl pH 7.4, 150 mmol/L potassium chloride, 10 mmol/L magnesium chloride) containing 0.5 mg protein/mL of human liver microsomes. After the reaction, 50 μL of the reaction solution was added to 100 μL of a methanol/acetonitrile=1/1 (v/v), mixed and centrifuged at 3000 rpm for 15 minutes. The test compound in the supernatant was quantified by LC/MS/MS, and a remaining amount of the test compound after the reaction was calculated, letting a compound amount at 0 minute reaction time to be 100%. Hydrolysis reaction was performed in the absence of NADPH and glucuronidation reaction was in the presence of 5 mM UDP-glucuronic acid in place of NADPH, followed by similar operations.

[5] = Metabolism stability test (rat); assay type: in vitro ADME; settings: test compound concentration 2 μmol/L, 30 minutes, 37° C.
[6] = Bioavailability (BA) test and total body clearance test; assay type: in vivo; settings: plasma, rat; for bioavailability: oral 1 mg/kg dosage
Protocol: (1) Animal: mice or rats (2) Breeding conditions: mice and rats are allowed to freely take solid feed and sterilized tap water (3) Dose and grouping: orally or intravenously administered at a predetermined dose; grouping is as follows (Dose depends on the compound)
Oral administration: 1 to 30 mg/kg (n=2 to 3)
Intravenous administration: 0.5 to 10 mg/kg (n=2 to 3)
(4) Preparation of dosing solution: for oral administration, in a solution or a suspension state; for intravenous administration, in a solubilized state (5) Administration method: in oral administration, forcedly administer into ventriculus with oral probe; in intravenous administration, administer from caudal vein with a needle-equipped syringe (6) Evaluation items: blood is collected over time, and the plasma concentration of drug is measured by LC/MS/MS (7) Statistical analysis: regarding the transition of the plasma concentration, the area under the plasma concentration-time curve (AUC) and total body clearance (Clt) are calculated by non-linear least squares program WinNonlin (Registered trademark), and the bioavailability (BA) is calculated from the AUCs of the oral administration group and intravenous administration group
The following values show the rat BA of the compounds on oral 1 mg/kg dosage.

T1 sequence (P08684 whole entry): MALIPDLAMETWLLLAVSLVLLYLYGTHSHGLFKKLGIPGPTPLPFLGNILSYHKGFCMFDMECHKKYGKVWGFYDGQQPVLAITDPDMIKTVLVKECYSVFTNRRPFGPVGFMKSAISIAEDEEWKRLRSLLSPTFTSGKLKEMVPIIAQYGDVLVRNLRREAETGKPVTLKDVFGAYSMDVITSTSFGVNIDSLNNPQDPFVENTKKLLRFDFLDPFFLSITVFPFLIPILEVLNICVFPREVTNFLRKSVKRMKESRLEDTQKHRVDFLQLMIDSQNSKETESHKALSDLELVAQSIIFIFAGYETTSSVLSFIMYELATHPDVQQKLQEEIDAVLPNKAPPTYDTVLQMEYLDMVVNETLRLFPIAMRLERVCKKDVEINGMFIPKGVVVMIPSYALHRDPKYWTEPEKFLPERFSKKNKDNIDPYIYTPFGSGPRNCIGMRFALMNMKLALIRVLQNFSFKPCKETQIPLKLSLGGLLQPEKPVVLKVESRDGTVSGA

## CN1CCN(C(=O)c2cc3c([nH]2)CCC(F)(F)C3)CC1 [Compound I-050]
CYP3A4 [1]
  IC50: > 20000 nM
Human HRH4
  Ki: 63 nM
CYP3A4 [2]
  CYP3A4 MBI: difference between IC50 values: (−) (when the difference is 3 μM or less, this was defined as (−))
[3]
  solubility at 16 h: > 50 µM
CYP2C9
  IC50: > 20000 nM
CYP1A2
  IC50: > 20000 nM
CYP2C19
  IC50: > 20000 nM
CYP2D6
  IC50: > 20000 nM

## CN1CCN(C(=O)c2cc3c([nH]2)C(CO)CCC3)CC1 (stereo not drawn) [Compound I-043]
Human HRH4
  Ki: 270 nM
hERG (IKr)
  inhibition at 10 min, 1 μmol/L: 0%

## O=C(c1cc2c([nH]1)CCC(Cl)(Cl)C2O)N1CCNCC1 (stereo not drawn) [Compound I-073]
[4]
  remaining rate: 99%
[5]
  remaining rate: 79%
Human HRH4
  Ki: 980 nM
[6]
  bioavailability: 59%
[6]; intravenous, read-out: Clt (total body clearance)
  clearance: 24 mL/min/kg

## CN1CCN(C(=O)c2cc3c([nH]2)CCC(C#N)C3)CC1 (stereo not drawn) [Compound I-035]
Human HRH4
  Ki: 150 nM
hERG (IKr)
  inhibition at 10 min, 1 μmol/L: 0%
[6]
  bioavailability: 31%
